Reference: patent US20210038577A1, “THIOREDOXIN REDUCTASE INHIBITORS FOR USE IN THE TREATMENT OF CANCER” (Cinda Pharma AB, priority 2018, published 2021)
pIC50: −log10 of the molar value.

What was measured:
Trx in MDA-MB-231 cells = experiment: Intracellular Trx levels by ELISA in MDA-MB-231 tumor cells; type: cell-based, human
Experimental: The human mammary carcinoma cell line MDA-MB-231 was obtained from the American Type Culture Collection (ATCC; Manassas, Va.) and cultured in Leibovitz's L-15 medium (Thermo Fisher Scientific, USA) supplemented with 10% (v/v) heat-inactivated fetal bovine serum (Thermo Fisher Scientific, USA), 10 mM HERBS (Sigma), 25 mM sodium bicarbonate (Sigma), 1× Glutamax (Sigma), 100 IU/mL penicillin and 100 μg/ml streptomycin (Sigma) in a 5% CO2 atmosphere at 37° C. Briefly, cells were seeded at 7500 cells/well in 96-well plates. After 24 h, the cells were treated either with different concentrations of test compounds or DMSO (0.5%; vehicle control) respectively and further incubated at 37° C. in a CO2 incubator. Culture supernatants were collected at different time points, like, immediately after cell plating (−24 h), 0 h (at the time of compound addition), and 1 h, 6 h, 12 h, 24 h, 48 h, 72 h and 96 h following compound addition. Subsequently, cells were lysed from corresponding wells with 0.1% Triton X-100 and the lysates were collected. Trx levels were measured in both the culture supernatants and cell lysates by ELISA using TXN (Human) ELISA Kit [Abnova; Cat no: KA0535] following manufacturer instruction. A standard curve was prepared using different concentrations of the Trx standard (provided in the kit) with the help of GraphPad Prism software (version 5.0; La Jolla, Calif., USA). Trx concentrations for the unknown samples were calculated from the standard curve. The data were expressed as the means of three replicates.

[1] = test system: U-87 MG (a glioblastoma cell line); experiment: MTT cell viability assay, U-87 MG; type: cell-based; settings: 72 hrs
Experimental: (§1) MDA-MB-453 (ATCC HTB-131) cells were grown in media with sodium pyruvate. MDA-MB-231 cells (ATCC HTB-26) were grown in DMEM media or L-15 supplemented with Glutamax (1×). U87-MG (ATCC HTB-14) and MDA-MB-468 (ATCC HTB-132) cells were cultured in DMEM supplemented with Glutamax (1×). NB-4 (DSMZ ACC-207) cells were cultured in RPMI 1640.
(§2) Breast cancer and glioblastoma cell lines were plated 4000 cells/well in 96-well plates in the presence of 10% FBS media. The following day cells were treated with various concentrations of the example compounds (0.1% DMSO final) and incubated for 72 hrs. After the incubation an MTT assay was performed to access cell viability. Percent of viability was determined using DMSO vehicle and no cell (blank) controls.

recombinant TrxR [2] = target: T1, recombinant TrxR (Rattus norvegicus, UniProt O89049); experiment: Sec-independent SecTRAP activity (Juglone assay); settings: compound at the concentration that achieves 100% inhibition of TrxR in the DTNB assay
T1 sequence (O89049 1-499): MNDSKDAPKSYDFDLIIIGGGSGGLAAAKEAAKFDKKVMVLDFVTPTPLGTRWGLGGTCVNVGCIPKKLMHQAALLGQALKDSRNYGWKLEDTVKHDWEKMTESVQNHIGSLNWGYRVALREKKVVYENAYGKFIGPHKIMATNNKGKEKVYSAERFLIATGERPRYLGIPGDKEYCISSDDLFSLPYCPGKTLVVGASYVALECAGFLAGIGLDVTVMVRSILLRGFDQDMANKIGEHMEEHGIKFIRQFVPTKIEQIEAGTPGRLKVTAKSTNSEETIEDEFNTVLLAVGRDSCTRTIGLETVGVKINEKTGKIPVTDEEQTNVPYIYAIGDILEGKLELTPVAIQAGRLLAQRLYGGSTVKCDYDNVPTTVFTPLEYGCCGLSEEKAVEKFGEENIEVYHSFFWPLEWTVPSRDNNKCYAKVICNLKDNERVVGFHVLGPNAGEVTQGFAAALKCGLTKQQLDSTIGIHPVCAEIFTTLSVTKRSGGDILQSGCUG
Experimental: (§3) SecTRAP forming capabilities of compounds with TrxR was determined using the Juglone Assay. Compounds were incubated in the presence of recombinant TrxR and 250 μM NADPH for 15 minutes at concentrations fully inhibiting enzyme activity in the DTNB assay. 100 μM juglone was then added to each well and NADPH consumption was followed at OD340 to determine sustained reductive capacity at the N-terminus of TrxR (SecTRAP Activity). Activity was determined following the consumption of NADPH over time and normalized to DMSO only (Vehicle) and TrxR lacking (blank) controls.
(§4) Aliquots were used in a DTNB assay to determine inhibition of enzyme activity. […] Incubation samples were then added to a reaction buffer containing 250 μM NADPH and 100 μM juglone, whereupon NADPH consumption was followed at OD340 to determine sustained SecTRAP activity.
(§5) Higher % values for juglone activity (juglone reduction activity) in this assay are indicative of stronger prooxidant activity.

GR from baker's yeast = target: T2, GR from baker's yeast (Saccharomyces cerevisiae, UniProt P41921); experiment: Glutathione reductase (GR) activity assay; type: biochemical; settings: Molar concentration
T2 sequence (P41921 17-483 limits assumed): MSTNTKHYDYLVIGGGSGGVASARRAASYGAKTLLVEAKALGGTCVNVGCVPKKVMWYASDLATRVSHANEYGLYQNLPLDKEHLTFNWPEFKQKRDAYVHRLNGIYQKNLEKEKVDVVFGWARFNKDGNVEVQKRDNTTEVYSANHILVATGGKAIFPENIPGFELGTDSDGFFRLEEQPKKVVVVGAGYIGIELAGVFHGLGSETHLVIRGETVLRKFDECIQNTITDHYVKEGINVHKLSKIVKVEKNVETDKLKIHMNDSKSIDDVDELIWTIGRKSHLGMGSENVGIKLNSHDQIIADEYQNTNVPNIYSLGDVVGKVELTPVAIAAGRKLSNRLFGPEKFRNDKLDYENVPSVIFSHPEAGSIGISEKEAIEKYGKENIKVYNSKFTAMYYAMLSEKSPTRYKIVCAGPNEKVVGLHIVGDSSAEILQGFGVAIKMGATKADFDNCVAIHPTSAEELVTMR
Experimental: GR activity was determined incubating compounds at various concentrations with GR from baker's yeast and 250 μM NADPH for 15 minutes, whereupon 10 mM oxidized glutathione (GSSG) was added to each well and NADPH consumption was followed at OD340. Activity was determined following the consumption of NADPH over time and normalized to DMSO only (Vehicle) and GR lacking (blank) controls.

[3] = test system: NB-4 (a leukaemia cell line); experiment: MTT cell viability assay, NB-4; type: cell-based; settings: 72 hrs
Experimental: as §1, §2

MDA-MB-231 cells = experiment: Alamar-Blue cell viability assay; type: cell-based, human; settings: 72 hrs
Experimental: MDA-MB-231 cells were plated 2000 cells/well in 96-well black optical plates in the presence of 10% FBS media containing 25 nM selenite. The following day cells were treated with various concentrations of compounds (0.1% DMSO final) and incubated for 72 hrs. After the incubation Alamar Blue reagent was added to each well and incubated for additional 3 hrs. Fluorescence was read ex:530 nm/em:590 nm, and percent of viability was determined using DMSO vehicle and no cell (blank) controls.

[4] = test system: MDA-MB-468 (a breast cancer cell line); experiment: MTT cell viability assay, MDA-MB-468; type: cell-based; settings: 72 hrs
Experimental: as §1, §2

recombinant TrxR [5] = target: T1, recombinant TrxR
Experimental: as §3, §4, §5

[6] = test system: MDA-MB-231 (a breast cancer cell line); experiment: MTT cell viability assay, MDA-MB-231; type: cell-based, human; settings: 72 hrs
Experimental: as §1, §2

Juglone Act (% @ 100% DTNB inhibition) (recombinant TrxR [2]) [%]	pIC50 (GR from baker's yeast)	pIC50 [3]	Compound	intracellular levels of Trx compared with control cells (Trx in MDA-MB-231 cells; at 1 μM and 10 μM)	time after which intracellular Trx is reduced compared with control cells (Trx in MDA-MB-231 cells; at 1 μM and 10 μM) [h]	time after which intracellular Trx is reduced compared with control cells (Trx in MDA-MB-231 cells; at 1 μM) [h]	time after which intracellular Trx is reduced compared with control cells (Trx in MDA-MB-231 cells; at 10 μM) [h]	also measured
			CC[S+]([O-])c1nc(OC)ccc1[N+](=O)[O-] (stereo not drawn) [OT-1131, 2-(ethylsulfinyl)-6-methoxy-3-nitropyridine]	reduced	≤ 6			
89.8	< 4.52		COc1ccc([N+](=O)[O-])c(S(=O)(=O)c2ccccn2)n1 [OT-1012, 6-Methoxy-3-nitro-2-(pyridin-2-ylsulfonyl)pyridine]					pIC50 ([1]; Homo sapiens, U-87 MG): 5.09; intracellular levels of Trx compared with control cells (Trx in MDA-MB-231 cells; at all doses): reduced; time after which intracellular Trx is reduced compared with control cells (Trx in MDA-MB-231 cells; at all doses): 12 h
83.67	< 4.52	5.92	COc1ccc([N+](=O)[O-])c(S(=O)(=O)Cc2ccccc2)n1 [OT-1011, 2-Benzylsulfonyl-6-methoxy-3-nitropyridine]	reduced	6 to 12			
91.16	< 4.52	5.93	COC(=O)CCS(=O)(=O)c1nc(OC)ccc1[N+](=O)[O-] [OT-1113, methyl 3-((6-methoxy-3-nitropyridin-2-yl)sulfonyl)propanoate]	reduced		48	65	

Compound	Juglone Act (% @ 100% DTNB inhibition) (recombinant TrxR [2]) [%]	pIC50 (GR from baker's yeast)	pIC50 [3]	intracellular levels of Trx compared with control cells (Trx in MDA-MB-231 cells; at 1 μM and 10 μM)	time after which intracellular Trx is reduced compared with control cells (Trx in MDA-MB-231 cells; at 1 μM and 10 μM) [h]	time after which intracellular Trx is reduced compared with control cells (Trx in MDA-MB-231 cells; at 1 μM) [h]	time after which intracellular Trx is reduced compared with control cells (Trx in MDA-MB-231 cells; at 10 μM) [h]	also measured
O=C1C=C[C@H]2[C@@H]3C(=O)N(Cc4ccccc4)C(=O)[C@@H]3[C@@H]1N2Cc1ccccc1 (relative stereo) [OT-2056, exo-4,11-Dibenzyl-4,11-diazatricyclo[5.3.1.0^2,6]undec-9-ene-3,5,8-trione]	107.692	< 4.52	6.38	reduced		24	6	
CC(=O)OC[C@H]1O[C@@H]([S-])[C@H](OC(C)=O)[C@@H](OC(C)=O)[C@@H]1OC(C)=O.CCP(CC)CC.[Au+] [Auranofin, reference compound]		< 4.52						pIC50 (MDA-MB-231 cells): 5.85; pIC50 [1]: 5.76; pIC50 [4]: 6.51; classification as SecTRAP forming agent (recombinant TrxR [5]): SecTRAP-forming agent; pIC50 [6]: 5.78
